PubChem BioAssay AID1996
In brackets after ≈: the same amount, converted by molar mass.

Conditions: buffer; pH 7.4; 200.0 µM

SMILES | solubility kinetic [µg/mL]
CCC(Cc1ccccc1)NC(=O)C1CC1 (centres undefined) | > 32.6
NC(=O)CSc1nc2ccccc2nc1SCC(N)=O | 6.2 (≈ 20.1 µM)
Cc1nonc1NC(=O)CSc1ccccn1 | > 37.5
O=C(O)/C=C\C(=O)Nc1ccccc1N1CCN(c2ccccc2)CC1 | 52 (≈ 148 µM)
COc1ccccc1C(=O)Nc1cccc(C(=O)c2ccccc2)c1 | 3.5 (≈ 10.6 µM)
Cc1[nH]c(=O)c(C#N)c(C)c1CCC(=O)NCc1ccc(Cl)cc1 | > 51.6
CCOc1ccc(OCCCC(=O)N2CCN(S(=O)(=O)c3ccccc3C#N)CC2)cc1 | 27.2 (≈ 59.4 µM)
O=C(CN1C(=O)NC2(CCCCCCC2)C1=O)NCc1ccc(F)cc1 | 42.9 (≈ 119 µM)
COc1ccccc1CNC(=O)CCCc1cn(C)c2ccccc12 | 8.2 (≈ 24.4 µM)
O=C(Cc1c(Cl)cccc1Cl)Nc1ccncc1Cl | 6.1 (≈ 19.3 µM)
CC(=O)c1ccc(S(=O)(=O)N2CCN(CCOc3ccccc3)CC2)cc1 | 53.6 (≈ 138 µM)
Cc1cc(C)c(S(=O)(=O)c2ccc(C(C)(C)C)cc2)c(Cl)n1 | < 0.7
O=C(COC(=O)c1cc(S(=O)(=O)N2CCCC2)ccc1O)Nc1ccc(F)cc1F | > 66.1
O=C(Nc1ccc2c(c1)CCC2)Nc1ccccc1Cl | < 0.3
COc1ccccc1NC(=O)Nc1ccc2c(c1)CCC2 | < 0.3
Clc1ccc2c(N3CCOCC3)ccnc2c1 | > 37.3
CC(=O)C1=C(O)C(=O)N(c2ccccn2)C1c1ccccc1[N+](=O)[O-] (centres undefined) | > 50.9
NC(=O)CSc1nc2cc(S(=O)(=O)N3CCOCC3)ccc2o1 | > 53.6
CC(C)(C)P(=O)(N1CCOCC1)N1CCOCC1 | > 41.4
OCc1nc2ccccc2n1Cc1c(F)cccc1Cl | 14.4 (≈ 49.5 µM)
CCN(CC)CCN(C(=O)/C=C/c1cccs1)c1nc2ccc(C)cc2s1.Cl | 0.6

SMILES | solubility kinetic [µg/mL]
O=C(CN1C(=O)c2ccccc2C1=O)NC1CCCCCC1 | 12.4 (≈ 41.3 µM)
COC(=O)c1ccc2nccnc2c1 | 22.7 (≈ 121 µM)
Cc1ccc(Nc2nc(-c3ccncc3)nc3ccccc23)cc1 | < 0.2
Cc1csc(NC(=O)CSc2ccccc2F)n1 | > 42.4
Cc1ccc2c(c1)CCCN2C(=O)c1cc(C)c(C)s1 | 3.9 (≈ 13.7 µM)
CC(C)C(NC(=O)C(C)N1C(=O)c2ccccc2C1=O)c1ccccc1 (centres undefined) | > 52.6
Clc1ccc(NCc2cccnc2)c(Cl)c1 | 29.1 (≈ 115 µM)
CC(C)N1CCN(Cc2cc3c(cc2Cl)OCO3)CC1CCO (centres undefined) | 39.9 (≈ 117 µM)
COc1ccc(C(=O)N2CC(c3ccccc3)CC2=O)cc1 (centres undefined) | 3.4 (≈ 11.5 µM)
Cc1ccc(C(=O)c2ccccc2C(=O)OCC(=O)N2CCCC2)cc1 | > 52.7
Cc1ccc(C(C)C)cc1OCC(=O)Nc1ccccc1N1CCCC1 | < 0.4
O=C(c1ccco1)N1CCN(S(=O)(=O)c2cccc([N+](=O)[O-])c2)CC1 | > 54.8
CN1CCN(C(=O)/C(C#N)=C/c2ccc(F)cc2)CC1.Cl | > 46.5
COc1cc(C2NC(=O)NC3=C2C(=O)OC3)cc(OC)c1OC (centres undefined) | > 48
Cc1ccc(N=C2NC(=O)C(CO)(CO)S2)cc1 | 27.1 (≈ 102 µM)
CCOc1ccc(CN(C)C(C)C(=O)NCc2ccccc2)cc1 (centres undefined) | > 49
CC(C)c1ccc(C(=O)CN2C(=O)NC3(CCc4ccccc43)C2=O)cc1 (centres undefined) | 7.1 (≈ 19.6 µM)
CC(C)(C)c1ccc(OCC(=O)Nc2ccncc2)cc1 | 3.7 (≈ 13 µM)
Oc1ccc(Cl)cc1CNc1cnc2ccccc2c1 | 1.2 (≈ 4.21 µM)
O=C(COC(=O)c1ccc(OC(F)(F)F)cc1)Nc1ncccn1 | 10.1 (≈ 29.6 µM)

The next lines start with the values.

solubility kinetic [µg/mL] | SMILES
48.3 (≈ 139 µM) | CN1C2CCC1CC(NS(=O)(=O)c1cccc(C(F)(F)F)c1)C2 (centres undefined)
15.2 (≈ 39.1 µM) | O=C(COC(=O)c1cccc(S(=O)(=O)NCc2ccccc2)c1)NC1CC1
43.9 (≈ 141 µM) | CC(O)c1nc2ccccc2n1CCCCOc1ccccc1 (centres undefined)
7.4 (≈ 17.8 µM) | COc1ccc(/C=C/C(=O)Nc2ccc(C)c(S(=O)(=O)N3CCOCC3)c2)cc1
> 40.9 | CC(C)C(=O)Nc1cc2c3c(c1)CCC(=O)N3CCC2
> 42 | CC1C(C#N)=C(N)OC2=C1C(=O)CC(c1ccccc1)C2 (centres undefined)
> 51.4 | Cc1cc(C)c(C)c(S(=O)(=O)N[C@@H](C)C(=O)OCC(N)=O)c1C
> 53.8 | CCC(=O)c1ccc(N2CCN(C(=O)c3ccc(F)cc3)CC2)c(F)c1
> 51.5 | CC(NC(=O)COC(=O)C1CC2CCCC(C1)C2=O)c1ccccc1 (centres undefined)
> 52.3 | Cc1ccccc1C(=O)N1CCC(C(=O)Oc2ccc(C#N)cc2)CC1
5.5 (≈ 15.4 µM) | CSc1ncccc1C(=O)OCC(=O)NC1CCCc2ccccc21 (centres undefined)
16.7 (≈ 62.1 µM) | O=[N+]([O-])c1ccc(Cl)cc1CN1CCCCCC1
3.3 (≈ 10.2 µM) | O=C(Nc1ccc2c(c1)OCO2)C1CC(=O)N(c2ccccc2)C1 (centres undefined)
< 0.2 | Cc1cccc(NC(=O)c2cccc(C(=O)Nc3cccc(C)c3)n2)c1
> 50.9 | COc1ccc(N2CCN(CC(=O)NCc3ccccc3)CC2)cc1
7.1 (≈ 19.6 µM) | COc1ccc(/C=C/C(=O)OCC(=O)NC2CCCCCC2)cc1OC
> 36.5 | C=Cn1c(C(=O)O)ccc1-c1ccc(OC)cc1
> 54.6 | CC1CCCCC12NC(=O)N(CC(=O)NCc1ccccc1Cl)C2=O (centres undefined)
2.6 (≈ 8.25 µM) | O=C(CSc1ncnc2nc[nH]c12)c1ccc([N+](=O)[O-])cc1
44.7 (≈ 144 µM) | O=C(Nc1ccc(Cl)cc1N1CCOCC1)C1CCCO1 (centres undefined)
4.8 (≈ 16.4 µM) | O=C(CN1CCCc2ccccc21)N1CCc2ccccc21
> 35.9 | Cc1cc(C(=O)NCC2CCCO2)sc1C (centres undefined)

solubility kinetic [µg/mL] | SMILES
33.9 (≈ 135 µM) | COc1ccc(NC(=O)C2CCCO2)c(OC)c1 (centres undefined)
51.7 (≈ 148 µM) | COc1ccc(N2C(=O)C(CN3CCCCC3)C2c2ccccc2)cc1 (centres undefined)
10.3 (≈ 31.5 µM) | Cc1nc(CNS(=O)(=O)c2cc([N+](=O)[O-])ccc2C)cs1
51.8 (≈ 135 µM) | CC(NC(=O)CN1C(=O)NC2(CCCC2)C1=O)c1ccc(Cl)cc1Cl (centres undefined)
2.5 (≈ 6.03 µM) | O=S(=O)(c1ccc(F)c(F)c1F)N1CCN(c2ncnc3sccc23)CC1
> 56.6 | CS(=O)(=O)N(CC(=O)N1CCOCC1)c1ccccc1Br
> 49 | CCCC(=O)Nc1ccccc1NC(=O)c1ccc2c(c1)OCO2
> 44 | O=C(O)CC1SC(=O)N(CC(=O)c2ccccc2)C1=O (centres undefined)
4 (≈ 10.7 µM) | COc1cc(NC(=O)COC(=O)c2[nH]c(C)c(C(C)=O)c2C)cc(OC)c1
40.7 (≈ 129 µM) | CS(=O)(=O)N(CC(=O)N1CCOCC1)c1cccc(F)c1
> 42.1 | O=C(Nc1cc(Cl)ccc1N1CCOCC1)C1CC1
> 39.2 | CCN1CCN(CCC(=O)Nc2ccccc2)CC1
> 42.5 | Cc1onc(-c2ccccc2)c1C(O)c1ccc(F)cc1 (centres undefined)
> 34.4 | Cc1ccc(N2C(=O)C3C=NNC3C2=O)cc1 (centres undefined)
3.6 (≈ 12.7 µM) | O=C(c1ccc(F)cc1)c1ccc(N2CCCCC2)cc1
40.2 (≈ 146 µM) | C=CCn1cc(C(=O)OCC)c(=O)c2ccc(F)cc21
29.2 (≈ 87.3 µM) | CCN1CCN(S(=O)(=O)c2ccc(OC)c3ccccc23)CC1
39.7 (≈ 145 µM) | C=CCOc1ccc2c(c1)c(=O)cc(C(=O)O)n2CC
1.8 (≈ 4.99 µM) | O=C(c1ccc(-c2ccccc2)cc1)N1CCN(c2ccccc2F)CC1
> 44 | Cc1nc2c(=O)n(-c3ccc(F)cc3F)nc(C)c2s1
27.8 (≈ 119 µM) | O=Cc1cnc2ccccc2c1-c1ccccc1
